Experiment: Daily home questionnaire of side effects, first 4 days after PDT
Assay type: in vivo, human
Settings: for Pain Score Mean (0-10 visual-analog scale): average of 23 patients
Protocol: Several secondary endpoints were also measured. For pain assessment, patients were asked every 5 to 10 min during illumination to report their pain on a 0 to 10 visual-analog (VAS) scale. Erythema was recorded photographically at Day 1 and on Day 4 post PDT. A side effect profile was recorded by each patient in a daily home questionnaire to document the presence or absence of eleven different signs and symptoms in the 4 days immediately following PDT (see Table 2).

With `NCC(=O)CCC(=O)O` [ALA, 5-aminolevulinic acid] the Bleeding (Side A (test PDT), DAY 1) was 0, 0 percentage of patients, the Blisters (Side A (test PDT), DAY 1) was 13, 13 percentage of patients and the Burning (Side A (test PDT), DAY 1) was 65, 65 percentage of patients. For the same compound, the Crusting (Side A (test PDT), DAY 1) was 9 percentage of patients, the Itching (Side A (test PDT), DAY 1) was 43, 43 percentage of patients and the Open sores (Side A (test PDT), DAY 1) was 0, 0 percentage of patients. For the same compound, the Peeling (Side A (test PDT), DAY 1) was 4 percentage of patients, the Redness (Side A (test PDT), DAY 1) was 91, 91 percentage of patients and the Stinging (Side A (test PDT), DAY 1) was 65, 65 percentage of patients. For the same compound, the Swelling (Side A (test PDT), DAY 1) was 26 percentage of patients, the “Pain Score Mean (0-10 visual-analog scale)” value (Side A (test PDT), DAY 1) was 3.0 and the Bleeding (Side A (test PDT), DAY 2) was 17 percentage of patients. The Blisters (Side A (test PDT), DAY 2) was 4 percentage of patients, the Burning (Side A (test PDT), DAY 2) was 52, 52 percentage of patients and the Crusting (Side A (test PDT), DAY 2) was 9 percentage of patients. The Itching (Side A (test PDT), DAY 2) was 74, 74 percentage of patients, the Open sores (Side A (test PDT), DAY 2) was 9, 9 percentage of patients and the Peeling (Side A (test PDT), DAY 2) was 4 percentage of patients. For the same compound, the Redness (Side A (test PDT), DAY 2) was 100, 100 percentage of patients, the Stinging (Side A (test PDT), DAY 2) was 70, 70 percentage of patients and the Swelling (Side A (test PDT), DAY 2) was 26, 26 percentage of patients. The “Pain Score Mean (0-10 visual-analog scale)” value (Side A (test PDT), DAY 2) was 2.5, the Bleeding (Side A (test PDT), DAY 3) was 13 percentage of patients and the Blisters (Side A (test PDT), DAY 3) was 17 percentage of patients. For the same compound, the Burning (Side A (test PDT), DAY 3) was 35, 35 percentage of patients, the Crusting (Side A (test PDT), DAY 3) was 30 percentage of patients and the Itching (Side A (test PDT), DAY 3) was 70 percentage of patients. The Open sores (Side A (test PDT), DAY 3) was 9, 9 percentage of patients, the Peeling (Side A (test PDT), DAY 3) was 22 percentage of patients and the Redness (Side A (test PDT), DAY 3) was 91 percentage of patients. The Stinging (Side A (test PDT), DAY 3) was 39, 39 percentage of patients, the Swelling (Side A (test PDT), DAY 3) was 9 percentage of patients and the “Pain Score Mean (0-10 visual-analog scale)” value (Side A (test PDT), DAY 3) was 1.6. The Bleeding (Side A (test PDT), DAY 4) was 17 percentage of patients, the Blisters (Side A (test PDT), DAY 4) was 4 percentage of patients and the Burning (Side A (test PDT), DAY 4) was 26, 26 percentage of patients. For the same compound, the Crusting (Side A (test PDT), DAY 4) was 35, 35 percentage of patients, the Itching (Side A (test PDT), DAY 4) was 65, 65 percentage of patients and the Open sores (Side A (test PDT), DAY 4) was 4, 4 percentage of patients. For the same compound, the Peeling (Side A (test PDT), DAY 4) was 48 percentage of patients, the Redness (Side A (test PDT), DAY 4) was 83 percentage of patients and the Stinging (Side A (test PDT), DAY 4) was 35, 35 percentage of patients. The Swelling (Side A (test PDT), DAY 4) was 0, 0 percentage of patients, the “Pain Score Mean (0-10 visual-analog scale)” value (Side A (test PDT), DAY 4) was 1.0, 1.0 and the Bleeding (Side B (control PDT), DAY 1) was 0, 0 percentage of patients. The Blisters (Side B (control PDT), DAY 1) was 13, 13 percentage of patients, the Burning (Side B (control PDT), DAY 1) was 65, 65 percentage of patients and the Crusting (Side B (control PDT), DAY 1) was 4 percentage of patients. The Itching (Side B (control PDT), DAY 1) was 43, 43 percentage of patients, the Open sores (Side B (control PDT), DAY 1) was 0, 0 percentage of patients and the Peeling (Side B (control PDT), DAY 1) was 0 percentage of patients. For the same compound, the Redness (Side B (control PDT), DAY 1) was 91, 91 percentage of patients, the Stinging (Side B (control PDT), DAY 1) was 65, 65 percentage of patients and the Swelling (Side B (control PDT), DAY 1) was 22 percentage of patients. For the same compound, the “Pain Score Mean (0-10 visual-analog scale)” value (Side B (control PDT), DAY 1) was 2.9, the Bleeding (Side B (control PDT), DAY 2) was 0 percentage of patients and the Blisters (Side B (control PDT), DAY 2) was 9 percentage of patients. The Burning (Side B (control PDT), DAY 2) was 52, 52 percentage of patients, the Crusting (Side B (control PDT), DAY 2) was 17 percentage of patients and the Itching (Side B (control PDT), DAY 2) was 74, 74 percentage of patients. For the same compound, the Open sores (Side B (control PDT), DAY 2) was 9, 9 percentage of patients, the Peeling (Side B (control PDT), DAY 2) was 9 percentage of patients and the Redness (Side B (control PDT), DAY 2) was 100, 100 percentage of patients. For the same compound, the Stinging (Side B (control PDT), DAY 2) was 70, 70 percentage of patients, the Swelling (Side B (control PDT), DAY 2) was 26, 26 percentage of patients and the “Pain Score Mean (0-10 visual-analog scale)” value (Side B (control PDT), DAY 2) was 2.4. The Bleeding (Side B (control PDT), DAY 3) was 4 percentage of patients, the Blisters (Side B (control PDT), DAY 3) was 13 percentage of patients and the Burning (Side B (control PDT), DAY 3) was 35, 35 percentage of patients. The Crusting (Side B (control PDT), DAY 3) was 26 percentage of patients, the Itching (Side B (control PDT), DAY 3) was 65 percentage of patients and the Open sores (Side B (control PDT), DAY 3) was 9, 9 percentage of patients.

— patent publication US12667735B2, “Methods for reducing pain during photodynamic therapy of actinic keratosis” (Sun Pharmaceutical Industries, Inc., priority 2019, dated 2026)
